Experiments:
[1] = target: T1, GAK (Homo sapiens, UniProt O14976); assay: KinomeScan competition binding assay; conditions: 10 μM levosimendan
T1 construct: DiscoverX KinomeScan panel kinase
T1 sequence (O14976 2-1311): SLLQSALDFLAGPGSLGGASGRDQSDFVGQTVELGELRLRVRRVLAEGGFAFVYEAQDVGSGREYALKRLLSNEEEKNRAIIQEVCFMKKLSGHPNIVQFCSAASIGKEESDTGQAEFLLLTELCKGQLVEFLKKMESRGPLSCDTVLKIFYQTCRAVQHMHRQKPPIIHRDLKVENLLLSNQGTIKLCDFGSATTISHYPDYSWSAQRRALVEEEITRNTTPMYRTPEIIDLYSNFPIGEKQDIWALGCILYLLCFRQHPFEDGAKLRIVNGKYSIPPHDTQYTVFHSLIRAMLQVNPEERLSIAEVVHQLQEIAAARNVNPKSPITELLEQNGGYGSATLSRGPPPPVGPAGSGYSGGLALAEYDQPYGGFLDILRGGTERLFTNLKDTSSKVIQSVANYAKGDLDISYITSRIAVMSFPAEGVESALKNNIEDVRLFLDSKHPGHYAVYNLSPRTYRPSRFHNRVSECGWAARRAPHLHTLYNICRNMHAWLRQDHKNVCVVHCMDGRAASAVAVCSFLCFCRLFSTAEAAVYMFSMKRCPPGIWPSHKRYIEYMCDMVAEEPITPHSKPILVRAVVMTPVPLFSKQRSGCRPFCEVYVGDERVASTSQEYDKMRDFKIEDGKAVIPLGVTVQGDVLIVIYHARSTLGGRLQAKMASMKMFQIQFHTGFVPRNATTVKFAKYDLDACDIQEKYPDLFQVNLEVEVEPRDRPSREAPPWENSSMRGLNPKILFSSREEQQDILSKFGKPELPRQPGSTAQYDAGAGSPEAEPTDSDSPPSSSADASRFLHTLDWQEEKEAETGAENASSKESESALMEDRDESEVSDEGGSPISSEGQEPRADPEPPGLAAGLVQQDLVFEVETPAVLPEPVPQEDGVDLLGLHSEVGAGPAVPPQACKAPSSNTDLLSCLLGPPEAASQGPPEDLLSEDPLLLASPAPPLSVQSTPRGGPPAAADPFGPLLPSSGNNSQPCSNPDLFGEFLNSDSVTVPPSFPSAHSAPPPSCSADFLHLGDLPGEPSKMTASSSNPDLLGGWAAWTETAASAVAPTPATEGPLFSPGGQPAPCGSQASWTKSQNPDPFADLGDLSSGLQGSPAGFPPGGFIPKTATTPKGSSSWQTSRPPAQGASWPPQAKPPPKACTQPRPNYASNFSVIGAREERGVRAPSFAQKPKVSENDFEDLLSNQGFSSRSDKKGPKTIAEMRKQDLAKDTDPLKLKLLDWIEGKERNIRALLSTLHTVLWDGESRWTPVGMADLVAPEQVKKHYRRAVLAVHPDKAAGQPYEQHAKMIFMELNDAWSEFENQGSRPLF

[2] = target: GAK (Homo sapiens, UniProt O14976); assay: biochemical; parameters: DiscoverX KinomeScan competition binding assay across human kinases; per cent of control at 10 and 100 uM; conditions: competition binding, % of control
Method: (§1) To validate our computational predictions, we employed a competition binding assay to detect the binding of levosimendan to 425 human kinases as well as its dose-response curve to RIOK1. The proprietary KinomeScan assay was performed by DiscoverX (Fremont, California, USA). The tests were performed at 10 μM and 100 μM concentrations of levosimendan, respectively. Assay results were reported as %control, calculated as follows: %control=(TestCompoundSignal−PositiveControlSignal)/(NegativeControlSignal−PositiveControlSignal)×100 KinomeScan assay across 452 human kinases verified our computational prediction (S1 Table). RIOK1 is one of the strongest inhibited kinases by levosimendan. The percentage control of RIOK1 is 15.0 and 0.0 under the treatment of 10 μM and 100 μM of levosimendan, respectively. […] The percentage controls of five kinases: FLT3, MAP2K5, PIP5K1A, GAK, and KIT are less than 30.0 under the treatment of both 10 μM and 100 μM of levosimendan. Both FLT3 and KIT are tyrosine protein kinases. Their inhibitors have recently been approved for the treatment of Acute Myeloid Leukemia and other types of cancers, but a combination therapy is needed to overcome rapidly emerged drug resistance, thus improve patients’ drug responses. Other kinases inhibited by levosimendan belong to serine/threonine protein kinase family (RIOK1, RIOK3, GAK, and MAP2K5) and lipid kinase family (PIP5K1A). […] As a result, levosimendan may modulate different cancer pathways from those by the tyrosine protein kinase inhibitors, and it could be a novel lead compound for a new anti-cancer therapy to overcome drug resistance of existing drugs or to target different types of cancers through polypharmacology or drug combination.
Target sequence in this assay (O14976 whole entry): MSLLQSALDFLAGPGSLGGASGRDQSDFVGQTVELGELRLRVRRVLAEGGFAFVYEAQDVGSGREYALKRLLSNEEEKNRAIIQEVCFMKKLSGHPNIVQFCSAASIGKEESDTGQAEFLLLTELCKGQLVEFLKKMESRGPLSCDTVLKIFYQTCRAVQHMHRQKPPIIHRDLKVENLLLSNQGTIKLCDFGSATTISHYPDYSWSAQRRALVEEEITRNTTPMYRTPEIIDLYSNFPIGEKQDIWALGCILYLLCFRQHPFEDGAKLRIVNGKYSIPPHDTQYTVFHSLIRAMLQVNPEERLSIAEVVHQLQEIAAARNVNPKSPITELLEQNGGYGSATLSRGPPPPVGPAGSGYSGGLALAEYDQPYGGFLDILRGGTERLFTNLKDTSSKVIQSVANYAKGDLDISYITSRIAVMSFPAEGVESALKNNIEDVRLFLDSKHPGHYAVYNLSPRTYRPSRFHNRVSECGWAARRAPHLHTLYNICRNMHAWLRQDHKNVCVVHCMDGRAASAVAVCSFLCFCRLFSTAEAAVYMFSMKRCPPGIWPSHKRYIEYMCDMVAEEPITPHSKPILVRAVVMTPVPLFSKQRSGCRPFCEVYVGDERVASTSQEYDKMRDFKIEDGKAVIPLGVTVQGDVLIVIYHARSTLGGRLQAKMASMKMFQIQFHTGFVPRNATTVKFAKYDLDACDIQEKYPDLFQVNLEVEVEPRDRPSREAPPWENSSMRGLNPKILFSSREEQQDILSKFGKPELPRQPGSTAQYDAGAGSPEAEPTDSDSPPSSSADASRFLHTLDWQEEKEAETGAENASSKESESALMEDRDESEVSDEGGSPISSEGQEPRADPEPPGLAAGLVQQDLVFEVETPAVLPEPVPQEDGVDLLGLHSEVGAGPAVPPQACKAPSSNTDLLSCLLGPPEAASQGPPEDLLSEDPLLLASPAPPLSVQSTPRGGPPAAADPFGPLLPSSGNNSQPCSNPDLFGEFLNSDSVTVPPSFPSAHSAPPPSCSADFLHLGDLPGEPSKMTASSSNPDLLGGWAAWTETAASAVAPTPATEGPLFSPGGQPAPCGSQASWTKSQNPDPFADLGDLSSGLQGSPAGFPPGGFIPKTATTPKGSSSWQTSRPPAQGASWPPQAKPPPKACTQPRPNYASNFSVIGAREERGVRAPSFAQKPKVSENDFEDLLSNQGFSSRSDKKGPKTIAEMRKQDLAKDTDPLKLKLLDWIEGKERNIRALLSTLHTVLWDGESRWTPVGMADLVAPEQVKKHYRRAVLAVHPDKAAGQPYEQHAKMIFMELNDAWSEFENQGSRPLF

[3] = target: ACVR1B (Homo sapiens, UniProt P36896); assay: biochemical; parameters: DiscoverX KinomeScan competition binding assay across human kinases; per cent of control at 10 and 100 uM; conditions: competition binding, % of control; read-out: Percent Control (100 uM Levosimendan)
Method: as §1

[4] = target: T2, ASK1 (Homo sapiens, UniProt Q99683); assay: biochemical; parameters: DiscoverX KinomeScan competition binding assay across human kinases; per cent of control at 10 and 100 uM; conditions: competition binding, % of control; read-out: Percent Control (100 uM Levosimendan)
T2 construct: gene MAP3K5
Method: as §1

[5] = target: T3, ARK5 (Homo sapiens, UniProt O60285); assay: biochemical; parameters: DiscoverX KinomeScan competition binding assay across human kinases; per cent of control at 10 and 100 uM; conditions: competition binding, % of control; read-out: Percent Control (100 uM Levosimendan)
T3 construct: gene NUAK1
Method: as §1

[6] = target: EGFR(L861Q) (Homo sapiens, UniProt P00533, L861Q); assay: biochemical; parameters: DiscoverX KinomeScan competition binding assay across human kinases; per cent of control at 10 and 100 uM; conditions: competition binding, % of control; read-out: Percent Control (100 uM Levosimendan)
Method: as §1

[7] = target: T4, HPK1 (Homo sapiens, UniProt Q92918); assay: biochemical; parameters: DiscoverX KinomeScan competition binding assay across human kinases; per cent of control at 10 and 100 uM; conditions: competition binding, % of control; read-out: Percent Control (100 uM Levosimendan)
T4 construct: gene MAP4K1
Method: as §1

[8] = target: T5, RSK2(Kin.Dom.1-N-terminal) (Homo sapiens, UniProt P51812); assay: biochemical; parameters: DiscoverX KinomeScan competition binding assay across human kinases; per cent of control at 10 and 100 uM; conditions: competition binding, % of control
T5 construct: gene RPS6KA3; Kin.Dom.1-N-terminal
T5 sequence (P51812 whole entry): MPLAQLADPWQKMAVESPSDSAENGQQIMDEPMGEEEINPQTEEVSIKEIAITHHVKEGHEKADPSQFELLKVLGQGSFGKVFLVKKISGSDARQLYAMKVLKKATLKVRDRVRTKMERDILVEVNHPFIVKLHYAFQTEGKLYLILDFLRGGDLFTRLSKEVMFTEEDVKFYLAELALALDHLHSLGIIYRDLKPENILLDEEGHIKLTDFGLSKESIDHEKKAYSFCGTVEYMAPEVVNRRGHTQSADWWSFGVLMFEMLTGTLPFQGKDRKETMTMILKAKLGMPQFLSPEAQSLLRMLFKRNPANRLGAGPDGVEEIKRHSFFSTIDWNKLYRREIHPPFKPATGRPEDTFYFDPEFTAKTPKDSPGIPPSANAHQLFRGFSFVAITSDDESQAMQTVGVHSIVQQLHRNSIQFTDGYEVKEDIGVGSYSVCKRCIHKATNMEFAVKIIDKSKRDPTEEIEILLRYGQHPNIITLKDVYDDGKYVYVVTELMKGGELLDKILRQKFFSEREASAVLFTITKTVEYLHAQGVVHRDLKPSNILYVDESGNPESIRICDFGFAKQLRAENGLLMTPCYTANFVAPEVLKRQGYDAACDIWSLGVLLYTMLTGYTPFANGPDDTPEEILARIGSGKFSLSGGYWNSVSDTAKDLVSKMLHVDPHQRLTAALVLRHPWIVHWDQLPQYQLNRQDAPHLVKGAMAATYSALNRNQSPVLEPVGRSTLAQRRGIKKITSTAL
Method: as §1

[9] = target: STK33 (Homo sapiens, UniProt Q9BYT3); assay: biochemical; parameters: DiscoverX KinomeScan competition binding assay across human kinases; per cent of control at 10 and 100 uM; conditions: competition binding, % of control; read-out: Percent Control (100 uM Levosimendan)
Method: as §1

[10] = target: NEK11 (Homo sapiens, UniProt Q8NG66); assay: biochemical; parameters: DiscoverX KinomeScan competition binding assay across human kinases; per cent of control at 10 and 100 uM; conditions: competition binding, % of control; read-out: Percent Control (100 uM Levosimendan)
Method: as §1

[11] = target: CDK7 (Homo sapiens, UniProt P50613); assay: biochemical; parameters: DiscoverX KinomeScan competition binding assay across human kinases; per cent of control at 10 and 100 uM; conditions: competition binding, % of control; read-out: Percent Control (100 uM Levosimendan)
Method: as §1

[12] = target: DYRK1B (Homo sapiens, UniProt Q9Y463); assay: biochemical; parameters: DiscoverX KinomeScan competition binding assay across human kinases; per cent of control at 10 and 100 uM; conditions: competition binding, % of control; read-out: Percent Control (100 uM Levosimendan)
Method: as §1

[13] = target: T6, GCN2(Kin.Dom.2,S808G) (Homo sapiens, UniProt Q9P2K8, S808G); assay: biochemical; parameters: DiscoverX KinomeScan competition binding assay across human kinases; per cent of control at 10 and 100 uM; conditions: competition binding, % of control; read-out: Percent Control (100 uM Levosimendan)
T6 construct: gene EIF2AK4; Kin.Dom.2
Method: as §1

[14] = target: CSNK2A1 (Homo sapiens, UniProt P68400); assay: biochemical; parameters: DiscoverX KinomeScan competition binding assay across human kinases; per cent of control at 10 and 100 uM; conditions: competition binding, % of control; read-out: Percent Control (100 uM Levosimendan)
Chain of CSNK2A1 (P68400 whole entry): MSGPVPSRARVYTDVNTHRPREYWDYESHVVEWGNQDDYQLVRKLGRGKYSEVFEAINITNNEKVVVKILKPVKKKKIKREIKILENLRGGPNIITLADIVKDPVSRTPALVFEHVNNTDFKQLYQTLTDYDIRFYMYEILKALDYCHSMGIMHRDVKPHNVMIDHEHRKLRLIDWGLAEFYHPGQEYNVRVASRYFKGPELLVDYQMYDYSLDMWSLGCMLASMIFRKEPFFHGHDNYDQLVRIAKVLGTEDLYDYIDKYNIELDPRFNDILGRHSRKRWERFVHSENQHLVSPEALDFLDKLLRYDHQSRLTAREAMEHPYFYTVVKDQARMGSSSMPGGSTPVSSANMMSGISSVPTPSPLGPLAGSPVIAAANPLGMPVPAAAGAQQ
Method: as §1

[15] = target: T7, QSK (Homo sapiens, UniProt Q9Y2K2); assay: biochemical; parameters: DiscoverX KinomeScan competition binding assay across human kinases; per cent of control at 10 and 100 uM; conditions: competition binding, % of control; read-out: Percent Control (100 uM Levosimendan)
T7 construct: gene SIK3
Method: as §1

[16] = target: PDPK1 (Homo sapiens, UniProt O15530); assay: biochemical; parameters: DiscoverX KinomeScan competition binding assay across human kinases; per cent of control at 10 and 100 uM; conditions: competition binding, % of control; read-out: Percent Control (100 uM Levosimendan)
Method: as §1

[17] = target: HIPK1 (Homo sapiens, UniProt Q86Z02); assay: biochemical; parameters: DiscoverX KinomeScan competition binding assay across human kinases; per cent of control at 10 and 100 uM; conditions: competition binding, % of control
Chain of HIPK1 (Q86Z02 whole entry): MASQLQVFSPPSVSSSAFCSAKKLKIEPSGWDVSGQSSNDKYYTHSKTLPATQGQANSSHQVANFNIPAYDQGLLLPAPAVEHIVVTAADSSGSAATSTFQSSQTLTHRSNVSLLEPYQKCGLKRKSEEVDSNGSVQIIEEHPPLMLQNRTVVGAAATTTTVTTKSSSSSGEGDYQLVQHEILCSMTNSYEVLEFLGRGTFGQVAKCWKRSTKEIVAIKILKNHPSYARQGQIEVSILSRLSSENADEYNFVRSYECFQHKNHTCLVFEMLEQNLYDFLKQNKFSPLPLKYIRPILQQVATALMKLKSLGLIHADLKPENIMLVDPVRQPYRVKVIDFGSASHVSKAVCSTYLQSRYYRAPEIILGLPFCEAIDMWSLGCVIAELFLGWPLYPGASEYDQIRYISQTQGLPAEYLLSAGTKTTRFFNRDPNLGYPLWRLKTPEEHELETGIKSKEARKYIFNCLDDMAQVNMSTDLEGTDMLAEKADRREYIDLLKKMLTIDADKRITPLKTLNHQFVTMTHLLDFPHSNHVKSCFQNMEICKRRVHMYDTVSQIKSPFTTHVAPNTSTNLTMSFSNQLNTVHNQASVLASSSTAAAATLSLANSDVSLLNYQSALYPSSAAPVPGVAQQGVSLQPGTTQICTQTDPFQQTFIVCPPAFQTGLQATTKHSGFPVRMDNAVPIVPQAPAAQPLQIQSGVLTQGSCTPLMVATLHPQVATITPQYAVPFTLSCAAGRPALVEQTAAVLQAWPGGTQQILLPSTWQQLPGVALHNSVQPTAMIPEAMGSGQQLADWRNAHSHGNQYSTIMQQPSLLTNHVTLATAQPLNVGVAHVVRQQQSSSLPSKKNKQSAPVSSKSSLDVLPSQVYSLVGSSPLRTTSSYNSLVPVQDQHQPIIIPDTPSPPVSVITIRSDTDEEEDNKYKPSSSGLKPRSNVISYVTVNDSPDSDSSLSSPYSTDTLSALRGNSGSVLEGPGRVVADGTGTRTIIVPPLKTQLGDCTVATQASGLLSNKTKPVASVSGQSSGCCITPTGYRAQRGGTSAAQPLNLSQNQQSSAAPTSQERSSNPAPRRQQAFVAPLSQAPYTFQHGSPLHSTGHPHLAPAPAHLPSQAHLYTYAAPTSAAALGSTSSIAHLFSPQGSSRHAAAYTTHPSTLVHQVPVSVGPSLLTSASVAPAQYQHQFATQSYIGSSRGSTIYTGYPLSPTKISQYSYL
Method: as §1

[18] = target: T8, RSK3(Kin.Dom.2-C-terminal) (Homo sapiens, UniProt Q15349); assay: biochemical; parameters: DiscoverX KinomeScan competition binding assay across human kinases; per cent of control at 10 and 100 uM; conditions: competition binding, % of control; read-out: Percent Control (100 uM Levosimendan)
T8 construct: gene RPS6KA2; Kin.Dom.2-C-terminal
Method: as §1

[19] = read-out: Percent Control (10 uM Levosimendan)
[20] = read-out: Percent Control (100 uM Levosimendan)

C[C@@H]1CC(=O)NN=C1c1ccc(NN=C(C#N)C#N)cc1 [levosimendan]
percentage control at 10 μM [1]: < 30.0%
remaining binding at 10 µM [2, 19]: 24%
remaining binding at 100 µM [2, 20]: 16%
remaining binding at 100 µM [3]: 61%
remaining binding at 100 µM [4]: 100%
remaining binding at 100 µM [5]: 100%
remaining binding at 100 µM [6]: 71%
remaining binding at 100 µM [7]: 95%
remaining binding at 10 µM [8, 19]: 85%
remaining binding at 100 µM [8, 20]: 35%
remaining binding at 100 µM [9]: 100%
remaining binding at 100 µM [10]: 100%
remaining binding at 100 µM [11]: 100%
remaining binding at 100 µM [12]: 100%
remaining binding at 100 µM [13]: 100%
remaining binding at 100 µM [14]: 100%
remaining binding at 100 µM [15]: 82%
remaining binding at 100 µM [16]: 100%
remaining binding at 10 µM [17, 19]: 95%
remaining binding at 100 µM [17, 20]: 20%
remaining binding at 100 µM [18]: 100%

— paper PMC6576746, “Rational discovery of dual-indication multi-target PDE/Kinase inhibitor for precision anti-cancer therapy using structural systems pharmacology” (PLoS Computational Biology, 2019)
